Results published in ChEMBL document CHEMBL3769368, “Semi-synthesis and anti-tumor evaluation of novel 25-hydroxyprotopanaxadiol derivatives as apoptosis inducing agents” (Medchemcomm, 2015).
The source made the active and inactive calls. No cut-off for these calls is given here.

Tests used:
DU-145 [1] = experiment: Induction of cell cycle arrest in human DU145 cells assessed as accumulation at Sub G1 phase at 20 uM after 6 hrs by propidium iodide staining-based flow cytometry (reference value: 1.57 to 1.59%); type: functional
DU-145 [2] = experiment: Induction of apoptosis in human DU145 cells assessed as chromatin nucleus condensation at 20 uM after 12 hrs by DAPI staining-based fluorescence microscopy; type: functional, cell-based
MDA-MB-231 = experiment: Antiproliferative activity against human MDA-MB-231 cells after 48 hrs by MTT assay; type: functional, cell-based; details: MDA-MB-231, 48 h
DU-145 [3] = experiment: Induction of cell cycle arrest in human DU145 cells assessed as accumulation at Sub G1 phase at 20 uM after 12 hrs by propidium iodide staining-based flow cytometry (reference value: 1.57 to 1.59%); type: functional
DU-145 [4] = experiment: Induction of morphological changes in human DU145 cells assessed as spherical cells at 20 uM after 12 hrs by inverted microscopy; type: functional, cell-based
DU-145 [5] = experiment: Induction of morphological changes in human DU145 cells assessed as decrease in cell size at 20 uM after 12 hrs by inverted microscopy; type: functional, cell-based
[6] = Antiproliferative activity against human alpha-2 cells after 48 hrs by MTT assay; type: functional, cell-based
DU-145 [7] = experiment: Induction of morphological changes in human DU145 cells assessed as formation of bubble-shaped regions at 20 uM after 12 hrs by inverted microscopy; type: functional, cell-based
DU-145 [8] = experiment: Induction of cell cycle arrest in human DU145 cells assessed as accumulation at Sub G1 phase at 20 uM after 18 hrs by propidium iodide staining-based flow cytometry (reference value: 1.57 to 1.59%); type: functional
[9] = Cytotoxicity against human IOSE-144 cells after 48 hrs by MTT assay; type: cell-based; details: IOSE-144, 48 h
[10] = Antiproliferative activity against human DU145 cells after 48 hrs by MTT assay; type: functional, cell-based; details: DU-145, 48 h
DU-145 [11] = experiment: Induction of apoptosis in human DU145 cells assessed as formation of apoptotic bodies at 20 uM after 12 hrs by DAPI staining-based fluorescence microscopy; type: functional, cell-based
[12] = Antiproliferative activity against human BGC823 cells after 48 hrs by MTT assay; type: functional, cell-based; details: BGC-823, 48 h
[13] = Antiproliferative activity against human PC3 cells after 48 hrs by MTT assay; type: functional, cell-based; details: PC-3, 48 h
DU-145 [14] = experiment: Induction of cell cycle arrest in human DU145 cells assessed as accumulation at Sub G1 phase at 20 uM after 3 hrs by propidium iodide staining-based flow cytometry (reference value: 1.57 to 1.59%); type: functional

| Structure (SMILES) | Activity (DU-145 [1]) | Activity (DU-145 [2]) | IC50 (MDA-MB-231) | Activity (DU-145 [3]) | Activity (DU-145 [4]) | Activity (DU-145 [5]) | IC50 [6] | Activity (DU-145 [7]) | Activity (DU-145 [8]) | IC50 [9] | IC50 [10] | Activity (DU-145 [11]) | IC50 [12] | IC50 [13] | Activity (DU-145 [14]) |
| --- | --- | --- | --- | --- | --- | --- | --- | --- | --- | --- | --- | --- | --- | --- | --- |
| CC(C)(O)CCC[C@@](C)(O)[C@H]1CC[C@]2(C)[C@@H]1[C@H](O)C[C@@H]1[C@@]3(C)CC[C@H](OC(=O)[C@@H](N)CCC(=O)O)C(C)(C)[C@@H]3CC[C@]12C | 9.81% | Active | 4.2 µM | 13.39% | Active | Active | 6.2 µM | Active | 30.53% | > 100 µM | 6.5 µM | Active | 6.9 µM | 9.9 µM | – |
| CC(C)(O)CCC[C@@](C)(O)[C@H]1CC[C@]2(C)[C@@H]1[C@H](O)C[C@@H]1[C@@]3(C)CC[C@H](OC(=O)[C@@H](N)CCCNC(=N)N)C(C)(C)[C@@H]3CC[C@]12C | 16.29% | Active | 4.2 µM | 34.07% | Active | Active | 7.1 µM | Active | – | > 100 µM | 5.5 µM | Active | 4.6 µM | 6.1 µM | 7.37% |
| C[C@@H](O)[C@H](N)C(=O)O[C@H]1CC[C@]2(C)[C@H]3C[C@@H](O)[C@@H]4[C@@H]([C@](C)(O)CCCC(C)(C)O)CC[C@@]4(C)[C@]3(C)CC[C@H]2C1(C)C | – | – | 5.4 µM | – | – | – | 12 µM | – | – | > 100 µM | 8.7 µM | – | 11 µM | 8.9 µM | – |
